Reference: patent publication US10172796B2, “Use of umirolimus and its derivatives for treating cancer” (Manli International Ltd., priority 2012, dated 2019)

Legend:
[1] = system: SNU-16/gastric; experiment: CellTiter-Glo luminescent cell viability assay, SNU-16; type: cell-based, human; conditions: 72 hours of in vitro culture
Procedure: (§1) Umirolimus was added to cultured cell lines derived from 9 types of human cancer. After 72 hours of in vitro culture, the 50% inhibitory concentration (IC50) of umirolimus on cell growth was measured using the CellTiter-Glo luminescent cell viability assay.

[2] = See J. Med. Chem. 2000, 43:2922-2928; cited from earlier work
[3] = system: BxPC-3/pancreatic; experiment: CellTiter-Glo luminescent cell viability assay, BxPC-3; type: cell-based, human; conditions: 72 hours of in vitro culture
Procedure: as §1

[4] = system: 11 cell lines from 9 types of human cancers; experiment: CellTiter-Glo cell viability assay, summary over the cell line panel; type: cell-based; conditions: summary for all 11 cell lines of Table 1
Procedure: as §1

[5] = system: AZ-521/gastric; experiment: CellTiter-Glo luminescent cell viability assay, AZ-521; type: cell-based, human; conditions: 72 hours of in vitro culture
Procedure: as §1

[6] = system: MDA-MB-231/breast; experiment: CellTiter-Glo luminescent cell viability assay, MDA-MB-231; type: cell-based, human; conditions: 72 hours of in vitro culture
Procedure: as §1

[7] = system: SK-HEP-1/liver; experiment: CellTiter-Glo luminescent cell viability assay, SK-HEP-1; type: cell-based, human; conditions: 72 hours of in vitro culture
Procedure: as §1

[8] = system: SK-MES-1/lung; experiment: CellTiter-Glo luminescent cell viability assay, SK-MES-1; type: cell-based, human; conditions: 72 hours of in vitro culture
Procedure: as §1

[9] = system: NCI-H460/lung; experiment: CellTiter-Glo luminescent cell viability assay, NCI-H460; type: cell-based, human; conditions: 72 hours of in vitro culture
Procedure: as §1

[10] = system: SW620/colorectal; experiment: CellTiter-Glo luminescent cell viability assay, SW620; type: cell-based, human; conditions: 72 hours of in vitro culture
Procedure: as §1

[11] = system: RPMI-8226/multiple myeloma; experiment: CellTiter-Glo luminescent cell viability assay, RPMI-8226; type: cell-based, human; conditions: 72 hours of in vitro culture
Procedure: as §1

[12] = system: 10 human cancer cell lines; experiment: Inhibition of cancer cell growth by umirolimus as compared to sirolimus and everolimus; type: cell-based; conditions: 8 out of the 10 cancer cell lines tested: A2780, SK-HEP-1, DLD-1, SNU-16, BxPC-3, 786-O, SK-MES-1, AZ-521; FIG. 1
Procedure: as §1
The IC50 for 3 “limus” drugs for inhibiting the growth of 10 human cancer cell is lines was measured using the CellTiter-Glo luminescent cell viability assay as described in Example 1. The ten exemplary human cancer cell lines tested were SK-MES-1 (lung cancer), BxPC-3 (pancreatic cancer), AZ-521 (gastric cancer), SNU-16 (gastric cancer), SK-HEP-1 (liver cancer), A2780 (ovarian cancer), MDA-MB-231 (breast cancer), DLD-1 (colorectal cancer), DU-145 (prostate cancer) and 786-O (kidney cancer).

[13] = system: K562/chronic myelogenous leukemia; experiment: CellTiter-Glo luminescent cell viability assay, K562; type: cell-based, human; conditions: 72 hours of in vitro culture
Procedure: as §1

[14] = system: A2780/ovarian; experiment: CellTiter-Glo luminescent cell viability assay, A2780; type: cell-based, human; conditions: 72 hours of in vitro culture
Procedure: as §1

- IC50 [1]: 1.14 µM
- IC50 [3]: 3.07 µM
- IC50 [4]: < 10 µM
- IC50 [6]: 9.52 µM
- IC50 [7]: 7.81 µM
- IC50 [8]: 8.24 µM
- IC50 [9]: 7.07 µM
- IC50 [10]: 8.33 µM
- IC50 [11]: 6.8 µM
- IC50 [13]: 7.97 µM
- IC50 [14]: 7.31 µM
SMILES: CCOCCO[C@@H]1CC[C@@H](C[C@@H](C)[C@@H]2CC(=O)[C@H](C)/C=C(\C)[C@@H](O)[C@@H](OC)C(=O)[C@H](C)C[C@H](C)/C=C/C=C/C=C(\C)[C@@H](OC)C[C@@H]3CC[C@@H](C)[C@@](O)(O3)C(=O)C(=O)N3CCCC[C@H]3C(=O)O2)C[C@H]1OC [umirolimus]
- Maximum inhibition [1]: 99.75%
- lipophilicity as compared to sirolimus and everolimus [2]: 10 times
- Maximum inhibition [3]: 77.24%
- IC50 [5]: 4.23 µM
- Maximum inhibition [5]: 99.88%
- Maximum inhibition [6]: 99.23%
- Maximum inhibition [7]: 99.97%
- Maximum inhibition [8]: 96.57%
- Maximum inhibition [9]: 88.99%
- Maximum inhibition [10]: 55.69%
- Maximum inhibition [11]: 99.26%
- IC50 compared to sirolimus and everolimus [12]: superior to that of sirolimus and everolimus
- Maximum inhibition [13]: 98.49%
- Maximum inhibition [14]: 100.19%
